{"source": "patent US7635572B2", "about": "“Methods for conducting assays for enzyme activity on protein microarrays” (Life Technologies Corporation, priority 2004, dated 2009)", "origin": "cited, not measured here", "test_system": "39 kinases (Table 4)", "conditions": "known general specificities of the inhibitors, Table 3; cited from earlier work", "data": [{"compound": "Oc1ccc(-c2nc(-c3ccncc3)c(-c3ccc(F)cc3)[nH]2)cc1", "note": "[SB 202190]", "values": [{"measurement": "General Specificity (known)", "result": "serine/threonine"}]}]}
